# From patent publication US11083725B2 (priority 2014, dated 2021)
# Like-named read-outs stand apart in the source and are kept apart here.
# How the values were obtained:
# NHBE cells = assay: cells; assay type: cell-based, human
# CA09 = assay: microbe, parasite or virus in culture; assay type: cell-based, influenza virus H1N1 strain A/CA/04/2009; set-up: TCID50 (per mL): unit not given here; conditions: for log reduction at 10 pM / log reduction at 0.0001 µM / log reduction at 0.001 µM / log reduction at 0.01 µM / log reduction at 0.1 µM / log reduction at 1 µM / log reduction at 10 µM / log reduction at 100 µM: NHBE, read-out: TCID50 (per mL)
# [1] = Homo sapiens, NHBE, 72 h, […], prophylactic schedule, dose response 4 nM to 10 μM, […], read-out: IC50, Prophylactic Treatment, Control
# [2] = Therapeutic Drug Treatment, Drug Dose 10 pM, […]
# [3] = Therapeutic Drug Treatment, Drug Dose 100 pM, […]
# [4] = Therapeutic Drug Treatment, Drug Dose 1 nM, […]
# [5] = Therapeutic Drug Treatment, Drug Dose 10 nM, […]
# [6] = Therapeutic Drug Treatment, Drug Dose 100 nM, […]
# [7] = Therapeutic Drug Treatment, Drug Dose 1 μM, […]
# [8] = Therapeutic Drug Treatment, Drug Dose 10 μM, […]
# [9] = Therapeutic Drug Treatment, Drug Dose 100 μM, […]
# [10] = […], prophylactic schedule, dose response 4 nM to 10 μM, […], read-out: IC50, Prophylactic Treatment, Control
# [11] = […], dose response 4 nM to 10 μM, […], read-out: IC50, Prophylactic Treatment, Viral Infected
# [12] = follow up validation titer, therapeutic treatment
# [13] = […], dose response 4 nM to 10 μM, […], read-out: IC50, Therapeutic Treatment, Viral Infected
# [14] = […], therapeutic schedule, dose response 4 nM to 10 μM, […], read-out: IC50, Therapeutic Treatment, Control
# [15] = read-out: IC50, Prophylactic Treatment, Control
# [16] = read-out: IC50, Prophylactic Treatment, Viral Infected
molecule,measurement,setting,value
OLIGOMYCIN (A SHOWN),IC50,"NHBE cells; read-out: IC50, Therapeutic Treatment, Control",1000 nM
same,IC50,"NHBE cells; read-out: IC50, Therapeutic Treatment, Viral Infected",4 nM
O=C(O)Cn1nnc(-c2cc(N3CCC(Oc4cc(F)ccc4Br)CC3)no2)n1 [MK-8245],IC50,NHBE cells; [1],5000 nM
C=C(C)[C@H]1Cc2c(ccc3c2O[C@@H]2COc4cc(OC)c(OC)cc4[C@@H]2C3=O)O1 [Rotenone],Cell Death Prophylactic,NHBE cells,C > V
same,Cell Death Therapeutic,NHBE cells,C > V
same,log reduction at 10 pM,CA09; [2],0.09
same,log reduction at 0.0001 µM,CA09; [3],0.15
same,log reduction at 0.001 µM,CA09; [4],0.9
same,log reduction at 0.01 µM,CA09; [5],0.04
same,log reduction at 0.1 µM,CA09; [6],0.07
same,log reduction at 1 µM,CA09; [7],0.5
same,log reduction at 10 µM,CA09; [8],1.14
same,log reduction at 100 µM,CA09; [9],-0.05
CC(C)(Oc1ccc(CCNC(=O)c2ccc(Cl)cc2)cc1)C(=O)O [BEZAFIBRATE],IC50,NHBE cells; [1],7200 nM
CC[C@@H]1/C=C/C=C/C[C@H](C)[C@@H](O)[C@](C)(O)C(=O)[C@H](C)[C@@H](O)[C@H](C)C(=O)[C@H](C)[C@@H](O)[C@H](C)/C=C/C(=O)O[C@H]2[C@@H](C)[C@@H](CC1)O[C@@]1(CC[C@@H](C)C(CC(C)O)O1)[C@@H]2C (stereo partly drawn) [Oligomycin A],Cell Death Prophylactic,NHBE cells,C > V
same,Cell Death Therapeutic,NHBE cells,C > V
same,Viral Titer Therapeutic,CA09,Reduced
same,log reduction at 10 pM,CA09,0.92
same,log reduction at 0.0001 µM,CA09,0.23
same,log reduction at 0.001 µM,CA09,0.51
same,log reduction at 0.01 µM,CA09,0.6
same,log reduction at 0.1 µM,CA09,0.38
same,log reduction at 1 µM,CA09,0.77
same,log reduction at 10 µM,CA09,0.66
same,log reduction at 100 µM,CA09,0.28
C=C1C(=O)O[C@H](CCCCCCCC)[C@H]1C(=O)O [C75],Cell Death Prophylactic,NHBE cells,C > V
same,Cell Death Therapeutic,NHBE cells,C = V
CCC(C)(C)C(=O)O[C@H]1C[C@@H](C)C=C2C=C[C@H](C)[C@H](CC[C@@H]3C[C@@H](O)CC(=O)O3)[C@H]21 [SIMVASTATIN],IC50,"NHBE cells; Homo sapiens, NHBE, 72 h, […], therapeutic schedule, dose response 4 nM to 10 μM, […], read-out: IC50, Therapeutic Treatment, Control",5 nM
CO/C(=C\C(N)=O)[C@H](C)[C@H](/C=C/c1csc(-c2csc([C@@H](C)/C=C/C=C/C(C)C)n2)n1)OC [Myxothiazol],Cell Death Prophylactic,NHBE cells,C = V
same,Cell Death Therapeutic,NHBE cells,C > V
CCCCCCCCCCCCCCOc1ccc(C(=O)O)o1 [TOFA],IC50,NHBE cells; [10],4000 nM
PF 429242,IC50,NHBE cells; [11],6000 nM
Nc1cc(C(F)(F)F)c(-c2cc(N3CCOCC3)nc(N3CCOCC3)n2)cn1 [NVP-BKM120],Cell Death Prophylactic,NHBE cells,C = V
same,Cell Death Therapeutic,NHBE cells,C = V
same,NHBE cell survival / cell death after infection,NHBE cells,no effect
same,log reduction at 10 pM,CA09,0
same,log reduction at 0.0001 µM,CA09,0.4
same,log reduction at 0.001 µM,CA09,0.76
same,log reduction at 0.01 µM,CA09,0
same,log reduction at 0.1 µM,CA09,0.29
same,log reduction at 1 µM,CA09,-0.08
same,log reduction at 10 µM,CA09,0.07
same,log reduction at 100 µM,CA09,-0.37
Cn1cncc1[C@@](N)(c1ccc(Cl)cc1)c1ccc2c(c1)c(-c1cccc(Cl)c1)cc(=O)n2C [Tipifarnib],IC50,"NHBE cells; Homo sapiens, NHBE, 72 h, read-out: IC50, Prophylactic Treatment, Control",12 nM
same,IC50,"NHBE cells; Homo sapiens, NHBE, 72 h, read-out: IC50, Therapeutic Treatment, Control",13 nM
same,IC50,"NHBE cells; Homo sapiens, NHBE, read-out: IC50, Therapeutic Treatment, Viral Infected",33 nM
same,log reduction at 10 pM,CA09,0.02
same,log reduction at 0.0001 µM,CA09,0.73
same,log reduction at 0.001 µM,CA09,1.04
same,log reduction at 0.01 µM,CA09,0.6
same,log reduction at 0.1 µM,CA09,-0.16
same,log reduction at 1 µM,CA09,1.04
same,log reduction at 10 µM,CA09,1.4
same,log reduction at 100 µM,CA09,0
CC(C)c1nc(N(C)S(C)(=O)=O)nc(-c2ccc(F)cc2)c1/C=C/[C@@H](O)C[C@@H](O)CC(=O)O [Rosuvastatin],log reduction at 10 pM,CA09,0
same,log reduction at 0.0001 µM,CA09,0.15
same,log reduction at 0.001 µM,CA09,0.76
same,log reduction at 0.01 µM,CA09,0.66
same,log reduction at 0.1 µM,CA09,0.41
same,log reduction at 1 µM,CA09,1
same,log reduction at 10 µM,CA09,0.79
same,log reduction at 100 µM,CA09,0.64
same,Viral Titer Therapeutic,CA09; [12],Reduced
[O]=[V]1(=[O])(=[O])(=[O])[n+]2cccc3ccc4ccc[n+]1c4c32 [BP/(PHEN)],Cell Death Prophylactic,NHBE cells,V > C
same,TCID50 (per mL),CA09; [2],−0.50
same,TCID50 (per mL),CA09; [3],−0.54
same,TCID50 (per mL),CA09; [4],−0.44
same,TCID50 (per mL),CA09; [5],−0.74
same,TCID50 (per mL),CA09; [6],−0.13
same,TCID50 (per mL),CA09; [7],−0.32
same,TCID50 (per mL),CA09; [8],−0.10
same,TCID50 (per mL),CA09; [9],−0.18
CC(C)CCN1c2nc(Nc3cc(F)c(O)c(F)c3)ncc2N(C)C(=O)C1C (stereo not drawn) [BI-D1870],Cell Death Prophylactic,NHBE cells,C > V
same,Viral Titer Prophylactic,CA09,Reduced
same,log reduction at 10 pM,CA09,0.28
same,log reduction at 0.0001 µM,CA09,1.18
same,log reduction at 0.001 µM,CA09,0.78
same,log reduction at 0.01 µM,CA09,0.2
same,log reduction at 0.1 µM,CA09,0.99
same,log reduction at 1 µM,CA09,0.84
same,log reduction at 10 µM,CA09,0.6
same,log reduction at 100 µM,CA09,0.65
Cc1cc([C@@H](C)Nc2ccccc2C(=O)O)c2nc(N3CCOCC3)cc(=O)n2c1 [AZD-6482],IC50,NHBE cells; [1],5000 nM
COc1ccc(Cc2nnc(NS(=O)(=O)c3ccccc3)s2)cc1 [OU749],log reduction at 10 pM,CA09,0
same,log reduction at 0.0001 µM,CA09,0.65
same,log reduction at 0.01 µM,CA09,0.35
same,log reduction at 10 µM,CA09,0.46
same,Viral Titer Therapeutic,CA09; [12],Reduced
CSCC[C@H](NC(=O)[C@H](Cc1ccccc1)NC[C@@H](NC[C@@H](N)CS)C(C)C)C(=O)O [FTASE INHIBITOR I],IC50,NHBE cells; [13],200 nM
same,IC50,NHBE cells; [14],90 nM
NOCC(=O)O,IC50,NHBE cells; [15],5000 nM
same,IC50,NHBE cells; [16],10000 nM
CC(C)n1c(/C=C/C(O)CC(O)CC(=O)O)c(-c2ccc(F)cc2)c2ccccc21 (stereo not drawn) [Fluvastatin],log reduction at 10 pM,CA09; [2],0.16
same,log reduction at 0.0001 µM,CA09; [3],0.5
same,log reduction at 0.001 µM,CA09; [4],0.18
same,log reduction at 0.01 µM,CA09; [5],0.34
same,log reduction at 0.1 µM,CA09; [6],0.15
same,log reduction at 1 µM,CA09; [7],0.51
same,log reduction at 10 µM,CA09; [8],0.75
same,log reduction at 100 µM,CA09; [9],-0.33
N#C/C(=C\c1ccc(O)cc1)C(=O)O [ALPHA-CYANO-4-HYDROXYCINNAMIC ACID],IC50,NHBE cells; [10],3000 nM
COc1cc(/C=C/C(=O)CC(=O)/C=C/c2ccc(O)c(OC)c2)ccc1O [CURCUMIN],IC50,NHBE cells; [1],1 nM
O=C([O-])CC(O)C(=O)[O-].[Na+].[Na+] (racemic) [DISODIUM DL-MALATE HYDRATE],IC50,NHBE cells; [13],7000 nM
same,IC50,NHBE cells; [10],30 nM
O=C1Nc2ccc3ncsc3c2/C1=C/c1cnc[nH]1 [IMIDAZOLO-OXINDOLE PKR INHIBITOR C16],IC50,NHBE cells; [14],70 nM
"O=[N+]([O-])c1ccc(O)c([N+](=O)[O-])c1 [2,4-DINITROPHENOL]",IC50,NHBE cells; [13],4000 nM
same,IC50,NHBE cells; [10],380 nM
same,IC50,NHBE cells; [14],8000 nM
OO.OO.[K+].[OH-].[V].c1cnc2c(c1)ccc1cccnc12 [BPV(PHEN)],IC50,NHBE cells; [14],5 nM
CS(=O)(=O)N1CCN(Cc2cc3nc(-c4cccc5[nH]ncc45)nc(N4CCOCC4)c3s2)CC1 [GDC-0941],Cell Death Prophylactic,NHBE cells,C = V
same,Cell Death Therapeutic,NHBE cells,C = V
same,NHBE cell survival / cell death after infection,NHBE cells,no effect
LB 42708,IC50,NHBE cells; [14],4.5 nM
CC(C)c1c(C(=O)Nc2ccccc2)c(-c2ccccc2)c(-c2ccc(F)cc2)n1CC[C@@H](O)C[C@@H](O)CC(=O)O [ATORVASTATIN CALCIUM],IC50,NHBE cells; [15],3000 nM
same,IC50,NHBE cells; [16],3000 nM
CCn1nnc2c(N3CCOCC3)nc(-c3ccc(NC(=O)Nc4ccc(C(=O)N5CCN(C)CC5)cc4)cc3)nc21 [PKI-402],Cell Death Prophylactic,NHBE cells,C = V
same,Cell Death Therapeutic,NHBE cells,C = V
same,NHBE cell survival / cell death after infection,NHBE cells,no effect
same,IC50,NHBE cells; [11],3000 nM
same,IC50,NHBE cells; [14],2 nM
